The supplement of paper PMC13380429

What was measured:
Conditions in all cases: 72 h
Caco-2 [1] = assay: relative viability EC50 (midpoint between 100% and the lowest measured viability); higher = less toxic
Vero E6 [2] = assay: as above
U2OS [3] = assay: as above
HepG2 [4] = assay: as above
Calu-3 [5] = assay: as above
Caco-2 [6] = assay: drug sensitivity score (DSS) for viability; higher = more toxic; extreme values may be limits of the assay
Vero E6 [7] = assay: as above
U2OS [8] = assay: as above
HepG2 [9] = assay: as above
Calu-3 [10] = assay: as above
Caco-2 [11] = assay: cell viability relative to DMSO; higher = less toxic
Vero E6 [12] = assay: as above
U2OS [13] = assay: as above
HepG2 [14] = assay: as above
Calu-3 [15] = assay: as above

Row | SMILES | relative viability EC50 (Caco-2 [1]) [µM] | relative viability EC50 (Vero E6 [2]) [µM] | relative viability EC50 (U2OS [3]) [µM] | relative viability EC50 (HepG2 [4]) [µM] | relative viability EC50 (Calu-3 [5]) [µM] | drug sensitivity score (Caco-2 [6]) | drug sensitivity score (Vero E6 [7]) | drug sensitivity score (U2OS [8]) | drug sensitivity score (HepG2 [9]) | drug sensitivity score (Calu-3 [10]) | cell viability (Caco-2 [11]; 1 nM) [%] | cell viability (Caco-2 [11]; 10 nM) [%] | cell viability (Caco-2 [11]; 100 nM) [%] | cell viability (Caco-2 [11]; 1000 nM) [%] | cell viability (Caco-2 [11]; 10000 nM) [%] | cell viability (Vero E6 [12]; 1 nM) [%] | cell viability (Vero E6 [12]; 10 nM) [%] | cell viability (Vero E6 [12]; 100 nM) [%] | cell viability (Vero E6 [12]; 1000 nM) [%] | cell viability (Vero E6 [12]; 10000 nM) [%] | cell viability (U2OS [13]; 1 nM) [%] | cell viability (U2OS [13]; 10 nM) [%] | cell viability (U2OS [13]; 100 nM) [%] | cell viability (U2OS [13]; 1000 nM) [%] | cell viability (U2OS [13]; 10000 nM) [%] | cell viability (HepG2 [14]; 1 nM) [%] | cell viability (HepG2 [14]; 10 nM) [%] | cell viability (HepG2 [14]; 100 nM) [%] | cell viability (HepG2 [14]; 1000 nM) [%] | cell viability (HepG2 [14]; 10000 nM) [%] | cell viability (Calu-3 [15]; 1 nM) [%] | cell viability (Calu-3 [15]; 10 nM) [%] | cell viability (Calu-3 [15]; 100 nM) [%] | cell viability (Calu-3 [15]; 1000 nM) [%] | cell viability (Calu-3 [15]; 10000 nM) [%]
1 | CCOC(=O)[C@@H](N)Cc1ccc(-c2cc(O[C@H](c3ccc(Cl)cc3-n3ccc(C)n3)C(F)(F)F)nc(N)n2)cc1 [telotristat-ethyl] | > 10 | > 10 | > 10 | > 10 | > 10 | 0 | 0 | 0 | 0 | 0 | 97.3 | 89.6 | 104 | 99.4 | 88.6 | 96.6 | 91.8 | 95.2 | 95.5 | 107 | 96.6 | 93.5 | 93.6 | 100 | 96.4 | 97.7 | 106 | 94.5 | 102 | 113 | 96.6 | 99.7 | 106 | 91.1 | 95.4
2 | COc1cc2nc(N3CCN(C(=O)C4CCCO4)CC3)nc(N)c2cc1OC (stereo not given) [terazosin] | > 10 | > 10 | > 10 | > 10 | > 10 | 0 | 0 | 0 | 0 | 0 | 104 | 95.3 | 95.4 | 92.5 | 95.3 | 96.4 | 95.4 | 97 | 92.9 | 104 | 97.8 | 102 | 96 | 101 | 103 | 107 | 96.7 | 101 | 103 | 112 | 96.1 | 106 | 105 | 99.9 | 96.3
3 | C/C(O)=C(\C#N)C(=O)Nc1ccc(C(F)(F)F)cc1 [teriflunomide] | > 10 | > 10 | > 10 | > 10 | > 10 | 0 | 0 | 0 | 0 | 0 | 98.1 | 98.2 | 102 | 95.1 | 94.1 | 102 | 101 | 97.1 | 98.2 | 93.9 | 102 | 98 | 102 | 99.8 | 99.7 | 104 | 107 | 93.4 | 98.1 | 94.4 | 104 | 97.2 | 95.3 | 105 | 94.2
4 | COc1ccc(CN(CCN(C)C)c2ncccn2)cc1 [thonzylamine] | > 10 | > 10 | > 10 | > 10 | > 10 | 0 | 0 | 0 | 0 | 0 | 99.7 | 104 | 93.8 | 101 | 105 | 102 | 102 | 98.1 | 104 | 95.9 | 97.2 | 101 | 96 | 98.3 | 105 | 93.2 | 103 | 97.6 | 102 | 98.9 | 96.2 | 103 | 96.9 | 92.5 | 101
5 | C[N+]12CCCCC1CCC(=C(c1cccs1)c1cccs1)C2 (stereo not given) [tiquizium] | > 10 | > 10 | > 10 | > 10 | > 10 | 0 | 0 | 0 | 0 | 0 | 89.3 | 96.3 | 89.7 | 90.3 | 100 | 106 | 88.6 | 98.3 | 87 | 100 | 98.1 | 99.2 | 94.3 | 103 | 102 | 103 | 86.9 | 98.9 | 93.7 | 94 | 100 | 102 | 97.8 | 111 | 99
6 | CCCCNC(=O)NS(=O)(=O)c1ccc(C)cc1 [tolbutamide] | > 10 | > 10 | > 10 | > 10 | > 10 | 0 | 0 | 0 | 0 | 0 | 101 | 96.7 | 96.2 | 96.3 | 96.3 | 104 | 103 | 105 | 102 | 97.4 | 101 | 98.5 | 99.2 | 96.7 | 98.6 | 87.5 | 98 | 103 | 94.3 | 99.9 | 95.1 | 90.2 | 95.7 | 107 | 94.3
7 | CCOc1cc(OCC)c(C(=O)CCC(=O)O)cc1OCC [trepibutone] | > 10 | > 10 | > 10 | > 10 | > 10 | 0 | 0 | 0 | 0 | 0 | 98.6 | 98.4 | 102 | 101 | 96.7 | 94.5 | 105 | 99.8 | 97.3 | 92.7 | 101 | 94.3 | 94.5 | 100 | 96.6 | 100 | 96.9 | 104 | 98.1 | 99.9 | 108 | 105 | 107 | 102 | 99.8
8 | CC(C)C[C@H](NC(=O)[C@@H](Cc1c[nH]c2ccccc12)NC(=O)[C@H](Cc1ccc(O)cc1)NC(=O)[C@H](CO)NC(=O)[C@H](Cc1c[nH]c2ccccc12)NC(=O)[C@H](Cc1c[nH]cn1)NC(=O)[C@@H]1CCC(=O)N1)C(=O)N[C@@H](CCCNC(=N)N)C(=O)N1CCC[C@H]1C(=O)NCC(N)=O [triptorelin] | > 10 | > 10 | > 10 | > 10 | > 10 | 0 | 0 | 0 | 0 | 0 | 95.7 | 110 | 92.8 | 102 | 110 | 94.5 | 98.5 | 98 | 74.8 | 107 | 91.2 | 102 | 96.8 | 99.2 | 108 | 102 | 86.3 | 93 | 110 | 120 | 90.2 | 80.1 | 90 | 99.2 | 106
9 | CN1[C@@H]2CC[C@H]1C[C@@H](OC(=O)c1c[nH]c3ccccc13)C2 [tropisetron] | > 10 | > 10 | > 10 | > 10 | > 10 | 0 | 0 | 0 | 0 | 0 | 102 | 108 | 101 | 103 | 97.5 | 98.2 | 97.3 | 98.2 | 99.9 | 96.2 | 104 | 103 | 96.8 | 100 | 98.3 | 100 | 101 | 93.1 | 96.7 | 101 | 100 | 93.8 | 99.9 | 88.6 | 97.6
10 | CCC(CO)(C(=O)OC1CC2CCC(C1)[N+]2(C)C)c1ccccc1 (stereo not given) [troventol] | > 10 | > 10 | > 10 | > 10 | > 10 | 0 | 0 | 0 | 0 | 0 | 92.5 | 92.6 | 98.5 | 94.2 | 94.2 | 93.7 | 96 | 86.6 | 97.8 | 110 | 97.3 | 94.3 | 99.4 | 97.8 | 105 | 93.6 | 103 | 93.1 | 107 | 113 | 99.8 | 94.6 | 91.8 | 102 | 93.9
11 | Cc1cc(Cn2nnc3c(-c4ccco4)nc(N)nc32)ccc1N [vipadenant] | > 10 | > 10 | > 10 | > 10 | > 10 | 0 | 0.2 | 0 | 0 | 0 | 110 | 106 | 115 | 113 | 97.1 | 109 | 105 | 99.7 | 92.8 | 88.7 | 99.6 | 97.7 | 98.2 | 98.7 | 101 | 81.9 | 80.5 | 99 | 91.8 | 96.3 | 108 | 103 | 108 | 94.1 | 107
12 | O=C(O)c1ccccc1-c1ccc(C(F)(F)F)cc1 [xenalipin] | > 10 | > 10 | > 10 | > 10 | > 10 | 0 | 0 | 0 | 0 | 0 | 97.1 | 92.8 | 99 | 92.1 | 97.6 | 98.6 | 104 | 92.2 | 98.6 | 98.2 | 100 | 95.8 | 103 | 98 | 105 | 89.1 | 90.8 | 94.6 | 97 | 109 | 101 | 101 | 111 | 98.6 | 107
13 | O=C1Cc2cc(CCN3CCN(c4nsc5ccccc45)CC3)c(Cl)cc2N1 [ziprasidone] | > 10 | > 10 | > 10 | > 10 | > 10 | 0.8 | 0 | 0 | 0.2 | 0 | 100 | 90.5 | 98.3 | 102 | 75.6 | 106 | 105 | 95.8 | 104 | 98.4 | 101 | 99.4 | 100 | 98.9 | 96.4 | 105 | 120 | 102 | 103 | 83.8 | 103 | 97.8 | 91.9 | 97.4 | 108
